# Laboratory results as given in patent publication US8481551B2, “Gyrase and topoisomerase IV inhibitors” (Vertex Pharmaceuticals Incorporated, priority 2011, dated 2013).
# Where a name gives a salt, the structure may show the parent alone. Read-outs that look alike come from different tables or passages of the source.
# Legend:
# Haemophilus influenzae = experiment: Gyrase MIC against Gram negatives, microdilution broth method (Protocol 2); assay type: cell-based
# Escherichia coli = experiment: as above; assay type: cell-based
# Neisseria gonorrhoeae = experiment: Gyrase MIC, agar dilution method (Protocol 3); assay type: cell-based
# Clostridium perfringens = experiment: microbe, parasite or virus in culture; assay type: cell-based
# N. asteroids = experiment: MIC determination procedure for Mycobacterium species (Protocol 4); assay type: cell-based; conditions: N. asteroids 2039
# [1] = system: Mycobacterium tuberculosis; experiment: Mycobacterium tuberculosis serum shift MIC assay (Protocol 5); assay type: cell-based; conditions: ATCC 35801 / ERDMAN
# From the text: Protocol 5. Protocol for Mycobacterium tuberculosis Serum Shift MIC Assay
# Media Prep: • 1. […] It was important that all media and supplements were sterilized prior to MICs. • 2. Prepared all media below and inoculated as described in next section. Tested all compounds against Mtb using each media. • a. […] 7H9+0.2% glycerol+2 g/L dextrose+0.85 g/L NaCl+0.003 g/L catalase (0% FBS). • c. 2×7H9+0.2% glycerol+2 g/L dextrose+0.85 g/L NaCl+0.003 g/L catalase combined with equal volume Fetal Bovine Serum (50% FBS).
# Inoculum Prep: • 1. […] Typically plates were two to three weeks of age when used for this assay due to the slow growth of this organism in culture. • 2. Vortexed well, then sonicated in water bath for 30 sec providing a suspension of ˜10^8 cells/ml. […] Prepared inoculum in each of the three media formulations by diluting the BBL Prompt suspension 1/200 (for example: transferred 0.2 ml of cells to 40 ml of medium) to obtain a starting cell density of ˜10^6 cells/ml. • 4.
# After 24 hours the fluorescence of each well was measured at Excitation 492 nm, Emission 595 nm.
# Percent inhibition by a given compound was calculated as follows: Percent inhibition=100−([well fluorescence-average background fluorescence]/[DMSO control−average background fluorescence]×100).
# S. aureus (ATCC 29213) = experiment: Mouse S. aureus kidney infection model; assay type: in vivo, CD-1 mice
# Procedure: Animals: female CD-1 mice (8-10 weeks of age; 6/group), were obtained from Charles River Laboratories and were housed and maintained in accordance with the Guide to the Care and Use of Experimental Animals. Methicillin-sensitive S. aureus (MSSA) strain ATCC 29213 was obtained from the American Type Culture Collection. To prepare stocks for animal studies S. aureus was plated on Mueller Hinton Agar plates and incubated at 37° C. overnight. 3-4 colonies from the plate were used to inoculate 5 mL Mueller Hinton Broth (MHB) that was incubated for 8 hours at 37° C. with shaking at 300 RPM. The 5 mL 8-hour culture was diluted 20-fold into 100 mL and incubated overnight (12-14 hours). The bacteria were pelleted for 20 minutes at 3000× and washed twice with Phosphate-Buffered Saline (PBS) containing 0.5% Bovine Serum Albumin (BSA). Aliquots (1 mL) containing ˜1×10^10 cfu in PBS/20% Glycerol were frozen and stored at −80° C. until the day of use. Stock titers were confirmed by serial dilution and plating on Mueller Hinton agar plates. Prior to inoculation, bacterial stocks were thawed and washed once with PBS/BSA. The stocks were then diluted with PBS/BSA to a final concentration of 1×10^9 cfu/mL to give an inoculum of approximately 1-2×10^8 cfu per mouse in a volume of 100 uL. […] Injections were given intravenously via the tail vein using a sterile 30 gauge needle. Upon completion of the mouse infections, the bacterial stocks used to challenge the mice were plated and counted to verify the concentration of the inocula. […] Fisher Scientific). During collection and homogenization all of the samples were kept on ice and the homogenizer was washed thoroughly and sterilized between each sample. Homogenates were serially diluted in sterile PBS/BSA and plated on MH agar to determine bacterial counts per pair of kidneys. CD-1 mice (6/group) were challenged IV with S. aureus (ATCC 29213) at 2×10^8 cfu/mouse. […] The 30-minute and 6-hour treatment groups were treated once, while the 24-hour group received a second treatment 10 hours after the first dose. […] Burdens from pairs of kidneys for each mouse and the median for each group of mice were calculated. CD-1 mice (6/group) were challenged IV with S. aureus (ATCC 29213) at 2×10^8 cfu/mouse. After 2 hours a single group of mice (Early Control (EC)) was euthanized and the kidneys harvested, homogenized and plated to quantitate S. aureus burdens. The additional groups of infected mice were treated via oral gavage with Vehicle at 10 ml/kg (10% VitE TPGS; […] After 24 hours the groups of treated mice were euthanized and the kidneys harvested, homogenized and plated to quantitate S. aureus burdens. Burdens from pairs of kidneys for each mouse and the median for each group of mice were summarized. CD-1 mice (8/group) were challenged IV with S. aureus (ATCC 29213) at 2×10^8 cfu/mouse. After 2 hours a single group of mice (Early Control (EC)) was euthanized and the kidneys harvested, homogenized and plated to quantitate S. aureus burdens. The additional groups of infected mice were treated via oral gavage with Vehicle at 10 ml/kg (Water; […] After 24 hours the groups of treated mice were euthanized and the kidneys harvested, homogenized and plated to quantitate S. aureus burdens. Burdens from pairs of kidneys for each mouse and the median for each group of mice were summarized.
# Pseudomonas aeruginosa = experiment: Gyrase MIC against Gram negatives, microdilution broth method (Protocol 2)
# [2] = Haemophilus influenzae, 55 isolates tested
# [3] = Neisseria gonorrhoeae, 13 isolates tested
# [4] = 10 mg/kg oral gavage, second treatment 10 hours after first, 24 Hours
# [5] = 10 mg/kg oral gavage, treated once, 6 Hours
# [6] = 30 mg/kg oral gavage, second treatment 10 hours after first, 24 Hours
# [7] = 30 mg/kg oral gavage, treated once, 6 Hours
# [8] = 30 mg/kg oral gavage, treated once, 30 Minutes
# [9] = 100 mg/kg oral gavage, second treatment 10 hours after first, 24 Hours
# [10] = 100 mg/kg oral gavage, treated once, 6 Hours
# [11] = 100 mg/kg oral gavage, treated once, 30 Minutes
# [12] = single oral dose 10 mg/kg, after 24 hours
# [13] = single oral dose 30 mg/kg, after 24 hours
# [14] = single oral dose 60 mg/kg, after 24 hours
# [15] = single oral dose 100 mg/kg, after 24 hours
structure (smiles),measurement,setting,value
"CCNC(=O)Nc1nc2cc(-c3cnc(C(C)(C)O)nc3)c(F)c([C@H]3CCCO3)c2[nH]1 [Compound 23A, methanesulfonic acid salt of 1-ethyl-3-[6-fluoro-5-[2-(1-hydroxy-1-methyl-ethyl)pyrimidin-5-yl]-7-[(2R)-tetrahydrofuran-2-yl]-1H-benzimidazol-2-yl]urea]",MIC,"Haemophilus influenzae; ATCC49247, Haemophilus influenzae ATCC 49247",0.5 µg/mL
same,MIC,Haemophilus influenzae; Haemophilus influenzae Rd0894 (AcrA-),0.041 µg/mL
same,MIC90,Haemophilus influenzae; [2],1 µg/mL
same,MIC Range,Haemophilus influenzae; [2],0.06-2^ μg/ml
same,MIC90,Escherichia coli; 12 isolates tested,> 8 µg/mL
same,MIC,"Escherichia coli; ATCC25922, Escherichia coli ATCC 25922",12 µg/mL
same,MIC,Escherichia coli; Escherichia coli AG100 WT,4 µg/mL
same,MIC,Escherichia coli; Escherichia coli AG100 tolC,0.063 µg/mL
same,MIC,Escherichia coli; Escherichia coli CHE30,8 µg/mL
same,MIC,Escherichia coli; Escherichia coli CHE30 tolC,0.125 µg/mL
same,MIC,Escherichia coli; Escherichia coli MC4100,> 16 µg/mL
same,MIC,Escherichia coli; Escherichia coli MC4100 tolC,0.25 µg/mL
same,MIC,"Neisseria gonorrhoeae; ATCC35541, Neisseria gonorrhoeae ATCC 35541",0.42 µg/mL
same,MIC,"Neisseria gonorrhoeae; ATCC49226, Neisseria gonorrhoeae ATCC 49226",1 µg/mL
same,MIC90,Neisseria gonorrhoeae; [3],0.25 µg/mL
same,MIC Range,Neisseria gonorrhoeae; [3],0.12 to 0.25 µg/mL
same,MIC90,Clostridium perfringens,0.5 µg/mL
same,MIC Range,"Clostridium perfringens; 12 isolates tested, Protocol 3",0.12 to 0.5 µg/mL
same,MIC,N. asteroids,1 µg/mL
same,MIC,"[1]; M. tuberculosis Erdman ATCC 35801, read-out: MIC",0.03 µg/mL
same,MIC,[1]; M. tuberculosis Erdman ATCC 35801 with Mouse Serum,0.5 µg/mL
same,Median Kidney Burden (Log cfu/kidneys),"S. aureus (ATCC 29213); 10 mg/kg oral gavage 2 h post challenge, treated once, time of treatment 30 Minutes",4.84 Log cfu/kidneys
same,Log Difference vs. Vehicle Control,S. aureus (ATCC 29213); [4],−1.87
same,Median Kidney Burden (Log cfu/kidneys),S. aureus (ATCC 29213); [4],4.48 Log cfu/kidneys
same,Log Difference vs. Vehicle Control,S. aureus (ATCC 29213); [5],−0.37
same,Median Kidney Burden (Log cfu/kidneys),S. aureus (ATCC 29213); [5],4.84 Log cfu/kidneys
same,Log Difference vs. Vehicle Control,"S. aureus (ATCC 29213); 10 mg/kg oral gavage, treated once, 30 Minutes",−0.14
same,Log Difference vs. Vehicle Control,S. aureus (ATCC 29213); [6],−2.90
same,Median Kidney Burden (Log cfu/kidneys),S. aureus (ATCC 29213); [6],3.44 Log cfu/kidneys
same,Log Difference vs. Vehicle Control,S. aureus (ATCC 29213); [7],−0.59
same,Median Kidney Burden (Log cfu/kidneys),S. aureus (ATCC 29213); [7],4.62 Log cfu/kidneys
same,Log Difference vs. Vehicle Control,S. aureus (ATCC 29213); [8],0.00
same,Median Kidney Burden (Log cfu/kidneys),S. aureus (ATCC 29213); [8],4.97 Log cfu/kidneys
same,Log Difference vs. Vehicle Control,S. aureus (ATCC 29213); [9],−2.86
same,Median Kidney Burden (Log cfu/kidneys),S. aureus (ATCC 29213); [9],3.49 Log cfu/kidneys
same,Log Difference vs. Vehicle Control,S. aureus (ATCC 29213); [10],−0.66
same,Median Kidney Burden (Log cfu/kidneys),S. aureus (ATCC 29213); [10],4.55 Log cfu/kidneys
same,Log Difference vs. Vehicle Control,S. aureus (ATCC 29213); [11],−0.08
same,Median Kidney Burden (Log cfu/kidneys),S. aureus (ATCC 29213); [11],4.89 Log cfu/kidneys
same,"kidney burden, compound- versus vehicle-treated mice","S. aureus (ATCC 29213); 30 minutes after the initial treatment, 10, 30, 100 mg/kg oral",no difference in kidney burden
same,log reduction versus the 30 minute early control,"S. aureus (ATCC 29213); 6 hours after the first dose, 30 and 100 mg/kg oral",0.3-0.4 log
same,reduction of bacterial burdens in the kidneys versus time-matched vehicle control,"S. aureus (ATCC 29213); 6 hours after the first dose, all compound treatments (10, 30, 100 mg/kg oral)",0.4-0.6 logs
same,log reduction versus the 24-hour vehicle-treated control,"S. aureus (ATCC 29213); 24 hours, 10 mg/kg BID oral",1.8 log
same,log reduction versus the 24-hour vehicle-treated control,"S. aureus (ATCC 29213); 24 hours, 30 and 100 mg/kg BID oral",2.8-2.9 log
same,log reductions versus the 30-minute vehicle-treated control,"S. aureus (ATCC 29213); 24 hours, 30 and 100 mg/kg oral",approximately 1.5 log
same,Median Kidney Burden (Log cfu/kidneys),"S. aureus (ATCC 29213); single oral dose 10 mg/kg 2 h post challenge, after 24 hours",4.73 Log cfu/kidneys
same,Log Reduction vs. Early Control,S. aureus (ATCC 29213); [12],0.00
same,Log Reduction vs. Late Control,S. aureus (ATCC 29213); [12],−1.90
same,log reductions versus vehicle control,S. aureus (ATCC 29213); [12],1.9 log
same,Log Reduction vs. Early Control,S. aureus (ATCC 29213); [13],−0.40
same,Log Reduction vs. Late Control,S. aureus (ATCC 29213); [13],−2.31
same,Median Kidney Burden (Log cfu/kidneys),S. aureus (ATCC 29213); [13],4.32 Log cfu/kidneys
same,log reductions versus vehicle control,S. aureus (ATCC 29213); [13],2.3 log
same,Log Reduction vs. Early Control,S. aureus (ATCC 29213); [14],−1.21
same,Log Reduction vs. Late Control,S. aureus (ATCC 29213); [14],−3.11
same,Median Kidney Burden (Log cfu/kidneys),S. aureus (ATCC 29213); [14],3.52 Log cfu/kidneys
same,log reductions versus vehicle control,S. aureus (ATCC 29213); [14],3.1 log
same,Log Reduction vs. Early Control,S. aureus (ATCC 29213); [15],−1.42
same,Log Reduction vs. Late Control,S. aureus (ATCC 29213); [15],−3.32
same,Median Kidney Burden (Log cfu/kidneys),S. aureus (ATCC 29213); [15],3.31 Log cfu/kidneys
same,log reductions versus vehicle control,S. aureus (ATCC 29213); [15],3.3 log
same,reduction of bacterial burdens versus the early control,"S. aureus (ATCC 29213); single oral doses of 60 and 100 mg/kg, after 24 hours",1.2-1.4 logs
same,MIC,Pseudomonas aeruginosa,0.25 µg/mL
same,MIC90,Pseudomonas aeruginosa,> 8 µg/mL
same,MIC,Pseudomonas aeruginosa; PAO1,> 16 µg/mL
